One assay addresses T1, BRG-1 (Homo sapiens, UniProt P51532).
T1 construct: made in house; host or cells: High Five insect cells
The assay is described as follows: ATPase catalytic activity assay (ADP-Glo), BRG-1. The format is biochemical. Conditions: Table 10, read-out: BRG1 IC50. The method, then:
(§1) The ATPase catalytic activity of BRM or BRG-1 was measured by an in vitro biochemical assay using ADP-Glo™ (Promega, V9102). The ADP-Glo™ kinase assay is performed in two steps once the reaction is complete. The first step is to deplete any unconsumed ATP in the reaction. The second step is to convert the reaction product ADP to ATP, which will be utilized by the luciferase to generate luminesce and be detected by a luminescence reader, such as Envision.
Then, following addition of 5 μL of ADP-Glo™ Reagent provided in the kit, the reaction incubates at room temperature for 40 minutes. Then, 10 μL of Kinase Detection Reagent provided in the kit is added to convert ADP to ATP, and the reaction incubates at room temperature for 60 minutes. Finally, luminescence measurement is collected with a plate-reading luminometer, such as Envision.

A further assay addresses T2, BRM (Homo sapiens, UniProt P51531).
T2 construct: made in house; host or cells: High Five insect cells
Put plainly: ATPase catalytic activity assay (ADP-Glo), BRM. The format is biochemical. To be noted: Table 10; for Ratio (BRG1 IC50 (μM) divided by BRM IC50 (μM)): ATPase assay, selectivity BRG1/BRM; for IC50: ATPase catalytic activity assay (ADP-Glo). As for the experimental part:
as §1
The assay reaction mixture […] contains 30 nM of BRM or BRG-1, 20 nM salmon sperm DNA (from Invitrogen, UltraPure™ Salmon Sperm DNA Solution, cat #15632011), and 400 μM of ATP in the ATPase assay buffer, which comprises of 20 mM Tris, pH 8, 20 mM MgCl2, 50 mM NaCl, 0.1% Tween-20, and 1 mM fresh DTT (Pierce™ DTT (Dithiothreitol), cat #20290). The reaction is initiated by the addition of the 2.5 μL ATPase solution to 2.5 μL ATP/DNA solution on low volume white Proxiplate-384 plus plate (PerkinElmer, cat #6008280) and incubates at room temperature for 1 hour. Then, following addition of 5 μL of ADP-Glo™ Reagent provided in the kit, the reaction incubates at room temperature for 40 minutes. Then, 10 μL of Kinase Detection Reagent provided in the kit is added to convert ADP to ATP, and the reaction incubates at room temperature for 60 minutes. Finally, luminescence measurement is collected with a plate-reading luminometer, such as Envision.
(In ADP-Glo the light output rises with the ADP produced.)

T2 sequence (P51531 whole entry): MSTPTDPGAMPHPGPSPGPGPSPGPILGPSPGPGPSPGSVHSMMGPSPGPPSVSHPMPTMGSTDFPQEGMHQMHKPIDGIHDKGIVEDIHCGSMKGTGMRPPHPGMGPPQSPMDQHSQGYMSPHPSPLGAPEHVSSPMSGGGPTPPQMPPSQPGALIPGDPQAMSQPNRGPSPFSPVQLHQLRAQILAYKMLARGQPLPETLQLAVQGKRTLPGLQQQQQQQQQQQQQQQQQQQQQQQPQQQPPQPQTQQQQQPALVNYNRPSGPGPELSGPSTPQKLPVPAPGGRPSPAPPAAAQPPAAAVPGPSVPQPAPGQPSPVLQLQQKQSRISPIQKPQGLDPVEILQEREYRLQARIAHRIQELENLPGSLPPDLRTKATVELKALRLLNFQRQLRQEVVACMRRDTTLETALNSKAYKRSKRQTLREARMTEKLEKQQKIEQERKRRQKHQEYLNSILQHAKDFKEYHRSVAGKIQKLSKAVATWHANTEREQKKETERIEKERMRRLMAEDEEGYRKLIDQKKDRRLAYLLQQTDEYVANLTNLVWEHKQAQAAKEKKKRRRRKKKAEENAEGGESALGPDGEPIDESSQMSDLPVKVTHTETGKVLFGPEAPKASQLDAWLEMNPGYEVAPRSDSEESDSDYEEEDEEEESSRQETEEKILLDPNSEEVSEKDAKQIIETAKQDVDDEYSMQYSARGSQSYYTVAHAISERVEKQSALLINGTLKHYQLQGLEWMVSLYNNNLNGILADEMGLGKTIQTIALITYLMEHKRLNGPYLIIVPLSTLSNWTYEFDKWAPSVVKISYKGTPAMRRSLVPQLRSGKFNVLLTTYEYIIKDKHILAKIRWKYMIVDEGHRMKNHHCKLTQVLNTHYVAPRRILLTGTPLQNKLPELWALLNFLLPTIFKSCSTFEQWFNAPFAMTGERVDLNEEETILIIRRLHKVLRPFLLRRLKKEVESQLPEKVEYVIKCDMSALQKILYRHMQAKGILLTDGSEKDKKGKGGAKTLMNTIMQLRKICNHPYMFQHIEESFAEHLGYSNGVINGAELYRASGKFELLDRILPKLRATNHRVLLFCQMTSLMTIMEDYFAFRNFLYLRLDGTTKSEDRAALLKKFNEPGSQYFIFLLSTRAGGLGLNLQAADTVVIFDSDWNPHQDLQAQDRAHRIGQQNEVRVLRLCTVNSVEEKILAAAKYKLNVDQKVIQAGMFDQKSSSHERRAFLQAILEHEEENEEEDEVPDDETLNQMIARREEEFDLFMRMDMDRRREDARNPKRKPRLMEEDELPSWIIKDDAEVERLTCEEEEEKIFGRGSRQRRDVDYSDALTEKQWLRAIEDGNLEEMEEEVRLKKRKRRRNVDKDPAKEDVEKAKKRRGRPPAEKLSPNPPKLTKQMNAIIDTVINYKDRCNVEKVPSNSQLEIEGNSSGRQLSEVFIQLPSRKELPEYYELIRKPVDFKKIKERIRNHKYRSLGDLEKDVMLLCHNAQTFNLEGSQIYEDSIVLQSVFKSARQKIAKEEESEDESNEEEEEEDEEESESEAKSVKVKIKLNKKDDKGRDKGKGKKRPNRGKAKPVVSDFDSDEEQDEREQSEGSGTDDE
T1 sequence (P51532 whole entry): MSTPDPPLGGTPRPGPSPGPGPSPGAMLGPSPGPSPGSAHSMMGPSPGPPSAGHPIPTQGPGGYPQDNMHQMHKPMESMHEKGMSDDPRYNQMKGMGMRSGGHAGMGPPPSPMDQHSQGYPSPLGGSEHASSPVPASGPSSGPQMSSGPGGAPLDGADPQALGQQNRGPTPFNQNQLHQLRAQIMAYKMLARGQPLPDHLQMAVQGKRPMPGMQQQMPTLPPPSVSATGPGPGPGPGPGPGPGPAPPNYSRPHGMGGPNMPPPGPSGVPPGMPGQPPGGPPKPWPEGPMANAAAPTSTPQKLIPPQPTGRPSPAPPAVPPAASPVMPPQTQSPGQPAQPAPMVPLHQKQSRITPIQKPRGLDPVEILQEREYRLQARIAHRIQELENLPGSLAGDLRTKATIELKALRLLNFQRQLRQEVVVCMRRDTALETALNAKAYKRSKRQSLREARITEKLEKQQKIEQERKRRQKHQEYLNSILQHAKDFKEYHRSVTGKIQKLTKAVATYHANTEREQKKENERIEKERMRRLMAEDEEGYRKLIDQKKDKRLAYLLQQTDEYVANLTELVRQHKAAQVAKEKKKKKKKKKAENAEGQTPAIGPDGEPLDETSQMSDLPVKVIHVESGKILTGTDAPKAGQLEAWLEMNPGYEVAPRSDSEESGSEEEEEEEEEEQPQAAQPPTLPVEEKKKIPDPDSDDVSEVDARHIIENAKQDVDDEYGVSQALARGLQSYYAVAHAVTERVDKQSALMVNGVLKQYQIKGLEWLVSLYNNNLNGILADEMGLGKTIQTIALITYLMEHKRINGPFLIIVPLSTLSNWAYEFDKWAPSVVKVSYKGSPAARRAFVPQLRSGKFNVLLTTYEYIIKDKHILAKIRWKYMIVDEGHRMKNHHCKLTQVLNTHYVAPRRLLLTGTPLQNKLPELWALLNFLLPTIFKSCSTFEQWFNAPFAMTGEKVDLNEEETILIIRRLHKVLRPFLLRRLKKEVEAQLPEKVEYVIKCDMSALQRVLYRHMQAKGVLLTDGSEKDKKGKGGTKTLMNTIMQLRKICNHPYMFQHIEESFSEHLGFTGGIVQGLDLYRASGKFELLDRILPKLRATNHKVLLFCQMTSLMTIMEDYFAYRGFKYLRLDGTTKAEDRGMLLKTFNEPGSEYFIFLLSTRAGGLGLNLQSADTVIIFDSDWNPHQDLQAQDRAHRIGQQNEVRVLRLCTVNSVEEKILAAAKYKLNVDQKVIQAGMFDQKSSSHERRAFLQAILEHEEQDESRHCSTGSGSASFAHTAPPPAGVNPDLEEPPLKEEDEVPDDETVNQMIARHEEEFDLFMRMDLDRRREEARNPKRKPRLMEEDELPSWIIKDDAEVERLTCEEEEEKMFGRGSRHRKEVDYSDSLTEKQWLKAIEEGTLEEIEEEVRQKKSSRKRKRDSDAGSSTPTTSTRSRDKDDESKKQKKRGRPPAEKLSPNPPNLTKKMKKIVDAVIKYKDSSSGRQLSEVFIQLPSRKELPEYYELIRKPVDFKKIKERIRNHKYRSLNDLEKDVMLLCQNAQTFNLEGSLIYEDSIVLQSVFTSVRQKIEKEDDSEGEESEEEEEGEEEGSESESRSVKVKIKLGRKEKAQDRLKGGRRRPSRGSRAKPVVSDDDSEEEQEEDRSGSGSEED

The term IC50 denotes the midpoint of a concentration-inhibition curve. Turning to `C[C@@H]1CN(c2cccc(-c3ccc4cnc(CNC(=O)c5ccc6c(c5)S(=O)(=O)[C@@H](F)CN(C)C6)cc4n3)n2)C[C@H](C)O1` (single isomer, unassigned) [Compound 317], the figures for the concentration for half-maximal inhibition (IC50) at BRG-1 and on BRM were 1760 nM and 227 nM, respectively. Further, at BRM, the “Ratio (BRG1 IC50 (μM) divided by BRM IC50 (μM))” value came to 7.78.
The corresponding values for `C[C@@H]1CN(c2cccc(-c3ccc4cnc(CNC(=O)c5ccc6c(c5)S(=O)(=O)[C@@H](F)CN(C)C6)cc4n3)n2)C[C@H](C)O1` [Compound 1, (R)—N-((2-(6-((2S,6R)-2,6-dimethylmorpholino)pyridin-2-yl)-1,6-naphthyridin-7-yl)methyl)-2-fluoro-4-methyl-2,3,4,5-tetrahydrobenzo[f][1,4]thiazepine-8-carboxamide 1,1-dioxide] are 21.4 nM, 2.9 nM and 7.29.
The corresponding values for `COCCn1c(C)cc2c(-c3ccc4cnc(CNC(=O)c5cc(F)c6c(c5)S(=O)(=O)[C@@H](F)CCO6)cc4n3)cccc21` [Compound 2] are 10.5 nM, 0.6 nM and 18.80.
In the case of `[2H]C1([2H])OC([2H])([2H])[C@H](F)S(=O)(=O)c2cc(C(=O)NCc3cc4nc(N5CCOc6cc(C7CC7)cnc65)ccc4cn3)cc(F)c21` [Compound 3], the half-inhibitory concentration (IC50) was 25.2 nM at BRG-1 and 0.8 nM on BRM.
On to `CCOc1ccnc2c1CCCN2c1ccc2cnc(CNC(=O)c3cc(F)c4c(c3)S(=O)(=O)[C@@H](F)CCO4)cc2n1` [Compound 4], for which the IC50 on BRG-1 turned out to be 16.9 nM. At BRM, the “Ratio (BRG1 IC50 (μM) divided by BRM IC50 (μM))” value is given as 12.99 and the midpoint of inhibition, the IC50, lay at 1.1 nM.
Turning to `C[C@@H]1CN(c2cccc(-c3ccc4cnc(CNC(=O)c5cc(F)c6c(c5)S(=O)(=O)[C@H](F)CCCO6)cc4n3)n2)C[C@H](C)O1` [Compound 5], the figures for the IC50 on BRG-1 and at BRM were 10.9 nM and 1.1 nM, respectively. Besides, the “Ratio (BRG1 IC50 (μM) divided by BRM IC50 (μM))” value on BRM is on record as 9.64.
On to `Cc1cnc2c(c1)OCCN2c1ccc2cnc(CNC(=O)c3cc(F)c4c(c3)S(=O)(=O)[C@@H](F)COC4)cc2n1` [Compound 6, (R)-2,6-difluoro-N-((2-(7-methyl-2,3-dihydro-4H-pyrido[3,2-b][1,4]oxazin-4-yl)-1,6-naphthyridin-7-yl)methyl)-2,3-dihydro-5H-benzo[e][1,4]oxathiepine-8-carboxamide 1,1-dioxide], for which the IC50 at BRG-1 turned out to be 21.3 nM.
Still for that read-out and setting: to `O=C(NCc1cc2nc(N3CCOc4cc(N5CC(F)C5)cnc43)ccc2cn1)c1ccc2c(c1)S(=O)(=O)[C@@H](F)CCOC2` [Compound 7] belongs 17.9 nM; to `C[C@@H]1OC[C@H](F)S(=O)(=O)c2cc(C(=O)NCc3cc4nc(N5CCOc6cc(C7CC7)cnc65)ccc4cn3)ccc21` [Compound 49], 44 nM; to `CCO[C@@H]1CCN(c2cccc(-c3ccc4cnc(CNC(=O)c5cc(F)c6c(c5)S(=O)(=O)[C@@H](F)CCO6)cc4n3)n2)C1` [Compound 92], 39 nM.
On the same count and under the same terms, the result for `COCCOc1ccc2c(c1)OCCN2c1ccc2cnc(CNC(=O)c3cc(F)c4c(c3)S(=O)(=O)[C@@H](F)CCO4)cc2n1` [Compound 93] reads 42.3 nM; that for `CCOc1ccnc2c1OCCN2c1ccc2cnc(CNC(=O)c3cc(Cl)c4c(c3)S(=O)(=O)[C@@H](F)CCO4)cc2n1` [Compound 94], 58.6 nM.
Same read-out and setting: to `CN(C)c1cnc2c(c1)OCCN2c1ccc2cnc(CNC(=O)c3cc(F)c4c(c3)S(=O)(=O)[C@@H](F)CCO4)cc2n1` [Compound 106] belongs 35.3 nM; to `C[C@@H]1CN(c2cccc(/C=C/c3ccnc(CNC(=O)c4cc(Cl)c5c(c4)S(=O)(=O)[C@@H](F)COC5)c3)n2)C[C@H](C)O1` [Compound 107], 99 nM; to `O=C(NCc1cc2nc(N3CCOc4ccc(OC(F)F)nc43)ccc2cn1)c1cc(F)c2c(c1)S(=O)(=O)[C@@H](F)CCO2` [Compound 126], 88.9 nM.
For `COc1nc(C(F)(F)F)ccc1-c1ccc2cnc(CNC(=O)c3cc(F)c4c(c3)S(=O)(=O)[C@@H](F)COC4)cc2n1` [Compound 127], at BRG-1, the IC50 was 72.5 nM.
Same read-out and setting: to `O=C(NCc1cc2nc(-c3cccc([C@H]4CC4(F)F)n3)ccc2cn1)c1cc(F)c2c(c1)S(=O)(=O)[C@@H](F)COC2` [Compound 128] belongs 123 nM.
In the case of `O=C(NCc1cc2nc(N3CCOc4ccc(C(F)F)nc43)ccc2cn1)c1cc(Cl)c2c(c1)S(=O)(=O)[C@@H](F)COC2` [Compound 208], on BRG-1, the IC50 turned out to be 239 nM.
The same measure, in the same setting: the result for `O=C(NCc1cc2nc(N3CCOc4ccc([C@@H]5C[C@@H]5F)nc43)ccc2cn1)c1cc(F)c2c(c1)S(=O)(=O)[C@@H](F)COC2` [Compound 209] reads 103 nM; that for `CO[C@H]1C[C@@H]1N(C)c1cccc(-c2ccc3cnc(CNC(=O)c4cc(F)c5c(c4)S(=O)(=O)[C@@H](F)COC5)cc3n2)n1` [Compound 211], 61.6 nM.
Regarding `O=C(NCc1cc2nc(N3CCOc4c(N5CC6(CC6)C5)ccnc43)ccc2cn1)c1cc(F)c2c(c1)S(=O)(=O)[C@@H](F)COC2` [Compound 212], the IC50 on BRG-1 is 136 nM.
For `O=C(NCc1cc2nc(N3CCOc4cc(OCC(F)F)cnc43)ccc2cn1)c1cc(F)c2c(c1)S(=O)(=O)[C@@H](F)COC2` [Compound 213], at BRG-1, the IC50 was determined as 90.3 nM.
Still for that read-out and setting: to `C[C@@H]1CCN1c1cc2c(cn1)N(c1ccc3cnc(CNC(=O)c4cc(F)c5c(c4)S(=O)(=O)[C@@H](F)COC5)cc3n1)CCO2` [Compound 214] belongs 72 nM; to `C[C@@H]1C[C@H](C)N1c1cnc2c(c1)OCCN2c1ccc2cnc(CNC(=O)c3cc(F)c4c(c3)S(=O)(=O)[C@@H](F)CCO4)cc2n1` [Compound 218], 90.6 nM; to `COCC1CN(c2ccc3c(c2)N(c2ccc4cnc(CNC(=O)c5cc(F)c6c(c5)S(=O)(=O)[C@@H](F)CCO6)cc4n2)CCO3)C1` [Compound 219], 167 nM.
On the same count and under the same terms, the result for `O=C(NCc1cc2nc(-c3cncc(N4CCCC4)n3)ccc2cn1)c1cc(F)c2c(c1)S(=O)(=O)[C@@H](F)CCO2` [Compound 220] reads 148 nM; that for `O=C(NCc1cc2cc(-c3cccc(C(F)F)n3)ccc2cn1)c1cc(F)c2c(c1)S(=O)(=O)[C@@H](F)COC2` [Compound 232], 140 nM; that for `C[C@H]1CCN1c1cnc2c(c1)OCCN2c1ccc2cnc(CNC(=O)c3cc(F)c4c(c3)S(=O)(=O)[C@@H](F)CCO4)cc2n1` [Compound 233], 76.2 nM.
The same measure, in the same setting: to `COc1nc(C(F)F)ccc1-c1ccc2cnc(CNC(=O)c3cc(C(F)F)c4c(c3)S(=O)(=O)[C@@H](F)COC4)cc2n1` [Compound 234] belongs 83 nM; to `O=C(NCc1cc2nc(N3CCOc4cc(C5CC5)cnc43)ccc2cn1)c1cc(F)c2c(c1)S(=O)(=O)[C@@H](F)CCO2` [Compound 241], 82.4 nM.
In the case of `COc1nc([C@@H](C)F)ccc1-c1ccc2cnc(CNC(=O)c3cc(Cl)c4c(c3)S(=O)(=O)[C@@H](F)COC4)cc2n1` [Compound 242], the concentration for half-maximal inhibition (IC50) at BRG-1 is 246 nM.
The same measure, in the same setting: the result for `C[C@@H]1CCCN1c1cnc2c(c1)OCCN2c1ccc2cnc(CNC(=O)c3cc(F)c4c(c3)S(=O)(=O)[C@@H](F)CCO4)cc2n1` [Compound 243] reads 111 nM.
On the same count and under the same terms, the result for `[2H]C([2H])([2H])Oc1ccc(-c2ccc3cnc(CNC(=O)c4cc(F)c5c(c4)S(=O)(=O)[C@@H](F)CCO5)cc3n2)nc1C1CC1` [Compound 257] reads 108 nM; that for `O=C(NCc1cc2nc(N3CCOc4cc(N5C[C@@H](F)[C@H](F)C5)cnc43)ccc2cn1)c1cc(Cl)c2c(c1)S(=O)(=O)[C@@H](F)CCO2` [Compound 258, (R)-9-chloro-N-((2-(7-((3R,4R)-3,4-difluoropyrrolidin-1-yl)-2,3-dihydro-4H-pyrido[3,2-b][1,4]oxazin-4-yl)-1,6-naphthyridin-7-yl)methyl)-4-fluoro-3,4-dihydro-2H-benzo[b][1,4]oxathiepine-7-carboxamide 5,5-dioxide], 102 nM; that for `O=C(NCc1cc2nc(N3CCOc4ccc(N5CCC5)nc43)ccc2cn1)c1cc(F)c2c(c1)S(=O)(=O)[C@@H](F)CCO2` [Compound 264], 177 nM.
As to `O=C(NCc1cc2cc(-c3cccc(C4CC4)n3)ccc2cn1)c1cc(F)c2c(c1)S(=O)(=O)[C@@H](F)CCO2` [Compound 291], the half-maximal inhibitory concentration (IC50) on BRG-1 was 206 nM.
For the compound `C#Cc1cc(C(=O)NCc2cc3nc(-c4cccc(N5C[C@@H](C)O[C@@H](C)C5)n4)ccc3cn2)cc2c1OCC[C@H](F)S2(=O)=O` [Compound 314], on BRG-1, the IC50 is 4130 nM.
On the same count and under the same terms, the result for `COc1cc(C(=O)NCc2cc3nc(-c4ccc(OC(F)F)c(C5CC5)n4)ccc3cn2)cc2c1COC[C@H](F)S2(=O)=O` [Compound 329] reads 1350 nM; that for `CCOc1cccc(-c2ccc3cnc(CNC(=O)c4cc(F)c5c(c4)S(=O)(=O)[C@@H](F)CCO5)cc3n2)n1` [Compound 330], 351 nM.

These data come from patent US12139487B2, “Compounds and uses thereof” (Foghorn Therapeutics Inc., priority 2022, dated 2024).
